# Reference: patent publication US12528774B2, “Thiosemicarbazone compounds and uses thereof” (The Regents of the University of California, priority 2019, dated 2026)
# How the values were obtained:
# 143 BTK ρ0 cells = assay: Viability (trypan blue) and cell cycle in 143 BTK ρ0 cells; assay type: cell-based; details: HCT13 + 20 μM Cu(II), 48 hours
# Experimental: (§1) FIG. 3A: Mito Stress Test of MIAPACA2 PDAC cells treated with HCT13 (25 nM)+Cu(II) (20 μM) for 24h. FIG. 3B: electron flow assay in isolated mitochondria treated with HCT-13 (100 nM)+Cu(II) (20 μM) for 1h. FIG. 3C: viability of 143 BTK parental (wild type, WT) and ρ0 cells after 48h of the indicated HCT13 concentration+Cu(II) (20 μM) treatment, assessed with Trypan Blue Staining. FIG. 3D: 48h cell cycle histogram and plots of S-phase arrest plots in 143 BTK WT and 143 BTK ρ0 cells at 24, 48 and 72h following treatment with indicated concentrations of HCT13+Cu(II)(20 μM). (mean±SD, n=2, one-way ANOVA corrected for multiple comparisons by Bonferroni adjustment, * P<0.05; ** P<0.01; *** P<0.001).
# Another HCT compound, Dp44mT, was reported to increase AMPK expression and induce ROS, although its cytotoxicity was not attributed to the functionality of the mitochondria. (Ref 50). […] Both 143 BTK ρ0 and parental (wild type, WT) cells were treated with HCT13+20 μM Cu(II) for 48 hours, after which cell viability was determined through trypan blue staining (FIG. 3C).
# Viability/Apoptosis assay: Viable cells were measured by Trypan blue staining using vi-cell counter (Beckman Coulter, CA, USA). […]
# Cell cycle: Cell cycle was assessed using Propidium iodide staining at indicated timepoints. […]
# MIAPACA2 cells = assay: Mito Stress Test (oxygen consumption rate, Seahorse); assay type: cell-based, human; details: HCT13 25 nM + Cu(II) 20 μM, 24 h
# Experimental: as §1, with “P<0.001). […]” for “P<0.001).”
# Mito Stress Test and Electron Flow Assay: All oxygen consumption rate (OCR) was measured using a XF24 Analyzer (Agilent) and normalized per μg protein. […] OCR was measured before (total respiration) and after the sequential injection of 1 μM oligomycin (complex V inhibitor), 0.75 μM FCCP (uncoupler), and 1 μM of rotenone and myxothiazol (complex I and III inhibitors, respectively), as described previously (1). Mitochondrial respiration was calculated by subtracting the non-mitochondrial respiration left after rotenone and myxothiazol injection. […] OCR was measured before and after the sequential injections described in the previous paragraph. […]
compound,measurement,setting,value
"CN(C)C(=S)N/N=C/c1nccc2cc(F)ccc12 (mixture of isomers) [HCT13, (E)-2-((6-Fluoroisoquinolin-1-yl)methylene)-N,N-dimethylhydrazine-1-carbothioamide and (Z)-2-((6-Fluoroisoquinolin-1-yl)methylene)-N,N-dimethylhydrazine-1-carbothioamide]",sensitivity of ρ0 cells compared to WT (viability),143 BTK ρ0 cells,significantly less sensitive
same,basal respiration and maximum respiratory capacity (OCR),MIAPACA2 cells,significantly reduced
same,basal respiration and maximum respiratory capacity (OCR),MIAPACA2 cells; listed as HCT-13,decreased significantly
